Measurements reported in ChEMBL document CHEMBL1130811, “An enantioselective fluorimetric assay for alcohol dehydrogenases using albumin-catalyzed beta-elimination of umbelliferone” (Bioorg Med Chem Lett, 1998).

How the values were obtained:
[1] = Specificity constant of the bovine serum albumin catalyzed reaction expressed as (kcat/KM)/kuncat; type: ADME, Bos taurus; details: cattle
[2] = Michaelis-Menten kinetics of the bovine serum albumin catalyzed reaction of the compound; type: ADME, Bos taurus; details: cattle
[3] = Rate constant of the bovine serum albumin catalyzed reaction of the compound; type: ADME, Bos taurus; details: cattle
[4] = Half life in presence of 2 mg/mL BSA at pH 8.8; type: ADME, Bos taurus; details: cattle, bovine serum albumin solution
[5] = target: Alcohol dehydrogenase (Equus caballus) (UniProt P00327+P00328); experiment: Compound was tested for enantioselectivity of alcohol dehydrogenase in horse liver at a concentration of 10 ug/mL.
[6] = tested on: alcohol dehydrogenase (Saccharomyces cerevisiae); experiment: Compound was tested for enantioselectivity of alcohol dehydrogenase in yeast at a concentration of 100 ug/mL.
[7] = tested on: alcohol dehydrogenase (Lactobacillus kefiri); experiment: Compound was tested for enantioselectivity of alcohol dehydrogenase in lactobacillus kefir at a concentration of 50 ug/mL.
[8] = tested on: alcohol dehydrogenase (Thermoanaerobacter brockii); experiment: Compound was tested for enantioselectivity of alcohol dehydrogenase in thermoanaerobium brockii at a concentration of 5 ug/mL.
[9] = Specificity constant of the BSA-catalyzed deprotonation of compound at pH 9; type: ADME, Bos taurus; details: cattle

| (kcat/KM)/kuncat [1] [M⁻¹] | Km [2] [µM] | k cat [3] [s⁻¹] | k cat/Kuncat [3] | half-life [4] [min] | Selectivity [5] [µM/s] | Selectivity [6] [µM/s] | Selectivity [7] [µM/s] | Selectivity [8] [µM/s] | SMILES | (kcat/KM)/kuncat [9] [M⁻¹] |
| --- | --- | --- | --- | --- | --- | --- | --- | --- | --- | --- |
| 2600000 | 150 | 0.0078 | 390 | 4 | – | – | – | – | CC(=O)CCOc1ccc2ccc(=O)oc2c1 | – |
| – | – | – | – | – | 0.00246 | 0.000599 | 2.67e-05 | 0.00132 | C[C@H](O)CCOc1ccc2ccc(=O)oc2c1 | – |
| – | – | – | – | – | 0.00014 | 3.31e-06 | 0.000773 | 6.61e-06 | C[C@@H](O)CCOc1ccc2ccc(=O)oc2c1 | – |
| – | – | – | – | – | – | – | – | – | c1cnoc1 [ISOXAZOLE] | 3600000 |
